20 compounds from patent US9718804B2, “GSK-3 inhibitors” (BRISTOL-MYERS SQUIBB COMPANY, priority 2013, dated 2017) can be followed below.

Read-outs that look alike come from different tables or passages of the source.

Assay [1] addresses GSK3β (Homo sapiens, UniProt P49841). The experiment in a line: GSK3β kinase assay (Caliper LabChip, fluoresceinated peptide substrate). It is filed as biochemical. The method in brief:
(§1)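 IC50 values were derived by non-linear regression from eleven-point dose series. Each reaction was held at room temperature for 20 hours and quenched with EDTA.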

The target of assay [2] is GSK3α (Homo sapiens, UniProt P49840). The assay is described as follows: GSK3α kinase assay (Caliper LabChip, fluoresceinated peptide substrate). It is filed as biochemical. The method in brief:
as §1

Assay [3] has as its system pTau. The assay is described as follows: pTau assay (no method described). It is filed as cell-based.
Setting [4] is: first value of the cell, 250 pM enzyme, 20 uM ATP, 20 hours at room temperature, read-out: GSK3β/α (nM): GSK3β IC50.

GSK3α, sequence (P49840 whole entry, species assumed): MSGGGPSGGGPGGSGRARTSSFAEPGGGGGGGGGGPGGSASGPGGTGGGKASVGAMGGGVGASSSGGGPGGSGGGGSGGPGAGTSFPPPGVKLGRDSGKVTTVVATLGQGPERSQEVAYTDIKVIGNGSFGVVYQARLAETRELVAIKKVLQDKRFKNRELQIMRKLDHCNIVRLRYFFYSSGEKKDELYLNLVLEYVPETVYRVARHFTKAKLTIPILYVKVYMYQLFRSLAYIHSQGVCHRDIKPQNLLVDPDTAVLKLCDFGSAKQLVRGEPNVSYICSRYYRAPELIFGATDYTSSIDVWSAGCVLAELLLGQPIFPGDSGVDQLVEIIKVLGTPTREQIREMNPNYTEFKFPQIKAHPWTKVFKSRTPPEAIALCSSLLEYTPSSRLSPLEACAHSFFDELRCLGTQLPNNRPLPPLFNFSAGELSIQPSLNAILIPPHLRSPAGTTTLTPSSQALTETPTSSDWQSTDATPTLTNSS
GSK3β, sequence (P49841 whole entry, species assumed): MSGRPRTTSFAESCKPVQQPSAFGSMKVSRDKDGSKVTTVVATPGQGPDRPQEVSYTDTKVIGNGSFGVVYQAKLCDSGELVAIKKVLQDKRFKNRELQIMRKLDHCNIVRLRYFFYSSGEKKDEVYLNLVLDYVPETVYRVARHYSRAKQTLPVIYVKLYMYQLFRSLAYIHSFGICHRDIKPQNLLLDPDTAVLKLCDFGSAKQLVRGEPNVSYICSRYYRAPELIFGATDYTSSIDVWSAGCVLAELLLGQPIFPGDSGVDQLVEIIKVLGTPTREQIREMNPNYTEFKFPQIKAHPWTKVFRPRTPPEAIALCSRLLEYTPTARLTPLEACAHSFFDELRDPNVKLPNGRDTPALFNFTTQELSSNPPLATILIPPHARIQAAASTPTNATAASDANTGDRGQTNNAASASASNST

For the compound `O=C(Nc1cnccc1OCC(F)(F)F)c1ccnc(Nc2ccc(C(F)(F)F)cn2)c1F` [Example 169, 3-Fluoro-N-(4-(2,2,2-trifluoroethoxy)pyridin-3-yl)-2-((5-(trifluoromethyl)pyridin-2-yl)amino)isonicotinamide], the IC50 was determined as 28 nM in assay [1] (setting [4]), 10 nM in assay [2] and 3900 nM in assay [3].
The corresponding values for `CC(C)(C)COc1cc(F)ncc1NC(=O)c1ccnc(Nc2ccc(Cl)cn2)c1` [Example 112, 2-((5-Chloropyridin-2-yl)amino)-N-(6-fluoro-4-(neopentyloxy)pyridin-3-yl)isonicotinamide] are 5 nM, 3 nM and 850 nM.
Consider `O=C(Nc1cnc(F)cc1C1(C2CC2)OCCO1)c1ccnc(Nc2ccc(C(F)(F)F)cn2)c1` [Example 94, N-(4-(2-Cyclopropyl-1,3-dioxolan-2-yl)-6-fluoropyridin-3-yl)-2-((5-(trifluoromethyl)pyridin-2-yl)amino)isonicotinamide], for which the IC50 in assay [1] (setting [4]) came to 0.06 nM; in assay [2], 0.03 nM; in assay [3], 1.2 nM.
The matching figures for `CC(=O)c1ccncc1NC(=O)c1ccnc(Nc2ccc(C(F)(F)F)cn2)c1` [Example 37, N-(4-Acetylpyridin-3-yl)-2-((5-(trifluoromethyl)pyridin-2-yl)amino)isonicotinamide]: 3.3 nM, 1.5 nM and 130 nM.
The matching figures for `CCOc1ccncc1NC(=O)c1ccnc(Nc2ccccn2)c1` [Example 11, N-(4-Ethoxypyridin-3-yl)-2-(pyridin-2-ylamino)isonicotinamide]: 8.9 nM, 2.8 nM and 294 nM.
The matching figures for `O=C(Nc1cnccc1-c1ccccc1)c1cc(Nc2ccc(C(F)(F)F)cn2)ncc1F` [Example 167, 5-Fluoro-N-(4-phenylpyridin-3-yl)-2-((5-(trifluoromethyl)pyridin-2-yl)amino)isonicotinamide]: 1.8 nM, 0.55 nM and 230 nM.
With `CC1(C)CN(c2ccncc2NC(=O)c2ccnc(Nc3ccc(C(F)(F)F)cn3)c2)CCO1` [Example 22, N-(4-(2,2-Dimethylmorpholino)pyridin-3-yl)-2-((5-(trifluoromethyl)pyridin-2-yl)amino)isonicotinamide], the IC50 in assay [1] (setting [4]) is 0.48 nM; in assay [2], 0.31 nM; in assay [3], 18 nM.
`CCc1cccc(Nc2cc(C(=O)Nc3cncc(-c4ccccc4F)c3)ccn2)n1` [Example 138, N-(5-(2-Fluorophenyl)pyridin-3-yl)-2-((6-ethylpyridin-2-yl)amino)isonicotinamide]: the IC50 in assay [1] (setting [4]) was determined as 3.5 nM; in assay [2] it was 2.2 nM; in assay [3], 4700 nM.
For `Cc1ccncc1NC(=O)c1ccnc(Nc2ccc(C#N)cn2)c1` [Example 26, 2-((5-Cyanopyridin-2-yl)amino)-N-(4-methylpyridin-3-yl)isonicotinamide], the IC50 in assay [1] amounted to 14 nM; in assay [2] (second value of the cell, 250 pM enzyme, 20 uM ATP, 20 hours at room temperature, read-out: GSK3β/α (nM): GSK3α IC50), 8.2 nM; in assay [3] it was 670 nM.
Consider `O=C(Nc1cnccc1SCC(F)(F)F)c1ccnc(Nc2ccc(C(F)(F)F)cn2)c1` [Example 171, N-(4-((2,2,2-Trifluoroethyl)thio)pyridin-3-yl)-2-((5-(trifluoromethyl)pyridin-2-yl)amino)isonicotinamide], for which the IC50 in assay [1] (setting [4]) amounted to 1.2 nM; in assay [2], 0.61 nM; in assay [3], 47 nM.
With `O=C(Nc1ccnnc1)c1ccnc(Nc2ccc(C(F)(F)F)cn2)c1` [Example 196, N-(Pyridazin-4-yl)-2-((5-(trifluoromethyl)pyridin-2-yl)amino)isonicotinamide], the IC50 was 80 nM in assay [1] (setting [4]), 25 nM in assay [2] and 7400 nM in assay [3].
Turning to `CC1(COc2cncc(NC(=O)c3ccnc(Nc4cccc(C(F)(F)F)n4)c3)c2)CC1` [Example 125, N-(5-((1-Methylcyclopropyl)methoxy)pyridin-3-yl)-2-((6-(trifluoromethyl)pyridin-2-yl)amino)isonicotinamide], the values for the IC50 in assay [1], in assay [2] and in assay [3] were 12 nM, 3.8 nM and 2200 nM, respectively.
The corresponding values for `Cc1ccc(Nc2cc(C(=O)Nc3cncc(-c4ccccc4F)c3)ccn2)nc1C` [Example 143, 2-((5,6-Dimethylpyridin-2-yl)amino)-N-(5-(2-fluorophenyl)pyridin-3-yl)isonicotinamide] are 8.7 nM, 6 nM and 2800 nM.
For `O=C(Nc1cnccc1-c1ccc(F)cc1)c1ccnc(Nc2cccc(Cl)n2)c1` [Example 48, 2-((6-Chloropyridin-2-yl)amino)-N-(4-(4-fluorophenyl)pyridin-3-yl)isonicotinamide], the IC50 was 2.9 nM in assay [1] (setting [4]), 1.9 nM in assay [2] and 270 nM in assay [3].
As to `CC(C)(C)S(=O)(=O)c1ccncc1NC(=O)c1ccnc(Nc2ccc(C(F)(F)F)cn2)c1` [Example 187, N-(4-(tert-butylsulfonyl)pyridin-3-yl)-2-((5-(trifluoromethyl)pyridin-2-yl)amino)isonicotinamide], the figures for the IC50 in assay [1] (setting [4]), in assay [2] and in assay [3] were 0.4 nM, 0.07 nM and 1.1 nM, respectively.
Turning to `CCC1(c2cc(Cl)ncc2NC(=O)c2ccnc(Nc3ccc(F)cn3)c2)OCCO1` [Example 113, N-(6-Chloro-4-(2-ethyl-1,3-dioxolan-2-yl)pyridin-3-yl)-2-((5-fluoropyridin-2-yl)amino)isonicotinamide], the IC50 worked out at 1.7 nM in assay [1] (setting [4]), 0.04 nM in assay [2] and 14 nM in assay [3].
The corresponding values for `CC(C)(C)C(=O)Nc1cccc(Nc2cc(C(=O)Nc3cncc(-c4ccccc4F)c3)ccn2)n1` [Example 154, N-(5-(2-Fluorophenyl)pyridin-3-yl)-2-((6-pivalamidopyridin-2-yl)amino)isonicotinamide] are 9.2 nM, 2.2 nM and 1100 nM.
Take `CC[C@@]1(c2cc(Cl)ncc2NC(=O)c2ccnc(Nc3ccc(C(F)(F)F)cn3)c2)OC[C@H](C)O1` [Example 89, N-(6-Chloro-4-((2R,4S)-2-ethyl-4-methyl-1,3-dioxolan-2-yl)pyridin-3-yl)-2-((5-(trifluoromethyl)pyridin-2-yl)amino)isonicotinamide]: the IC50 in assay [1] (setting [4]) is 1.6 nM; in assay [2], 1.7 nM; in assay [3], 340 nM.
The corresponding values for `Cc1cc(N2CCC(F)(F)CC2)c(NC(=O)c2ccnc(Nc3ccc(C(F)(F)F)cn3)c2)cn1` [Example 72, N-(6-Methyl-4-(4,4-difluoropiperidin-1-yl)pyridin-3-yl)-2-((5-(trifluoromethyl)pyridin-2-yl)amino)isonicotinamide] are 3.5 nM, 0.76 nM and 120 nM.
Consider `C[C@@H]1COCCN1c1ccncc1NC(=O)c1ccnc(Nc2ccc(C(F)(F)F)cn2)c1` [Example 21, (R)—N-(4-(3-Methylmorpholino)pyridin-3-yl)-2-((5-(trifluoromethyl)pyridin-2-yl)amino)isonicotinamide], for which the IC50 came out at 0.7 nM in assay [1] (setting [4]), 0.28 nM in assay [2] and 9.1 nM in assay [3].
